Measurements from patent publication US20240359037A1, “Ultrasound Method” (ACT THERAPEUTICS LTD, priority 2021, published 2024).

System: subcutaneous prostate cancer model (PC3)
Assay: Tumour specific uptake of Evans Blue vs. Enhancement MI
Assay type: in vivo, mice
Conditions: Enhancement 0.5 MHz MI 0.2 compared to MI=0 (no ultrasound); 30 min after treatment
Experimental: To investigate the effect of MI variance of the US Enhancement field, tumour specific uptake of Evans Blue (EB, fluorescent dye) has been investigated in a subcutaneous prostate cancer model (PC3) in mice. Five groups with Enhancement insonation MIs of 0, 0.1, 0.2, 0.3 and 0.4 were investigated (N=3 animals per group). […] 30 min after treatment, the tumours were excised and the amount of EB was measured by spectrophotometry at 620 nm.

`Cc1cc(-c2ccc(/N=N/c3ccc4c(S(=O)(=O)O)cc(S(=O)(=O)O)c(N)c4c3O)c(C)c2)ccc1/N=N/c1ccc2c(S(=O)(=O)O)cc(S(=O)(=O)O)c(N)c2c1O` [Evans Blue] was tested, and the “increase in tumour specific uptake” value was about 60%.
